According to patent US20250313604A1, “PEPTIDE PHARMACEUTICALS FOR INSULIN RESISTANCE” (Mederis Diabetes LLC, priority 2014, published 2025):
Read-outs that look alike come from different tables or passages of the source. One block for each compound: values may come before it.

Columns and labels:
[1] = in water; cited from earlier work
DIO mice = assay: In vivo assay in DIO mice (OGTT, insulin, body weight, NMR body composition)
Procedure: Fifty (50) diet induced obese (DIO) C57BL/6J male mice were received from JAX labs at 6 wks of age. The mice were ear notched for identification and housed […] in positively ventilated polycarbonate cages with HEPA filtered air at a density of 5 mice per cage. The animal room was lit entirely with artificial fluorescent lighting, with a controlled 12 h light/dark cycle. The normal temperature and relative humidity ranges in the animal rooms were 22±4° C. and 50±15%, respectively. Filtered tap water, acidified to a pH of 2.8 to 3.1, and high fat diet (Research Diets D12492; 60 kcal %) was provided ad libitum.
Following a 2 week acclimation, 50 mice were randomized into groups (n=10) as below. Group 1. Vehicle treated; Group 2. Low dose EU-A994; Group 3. high dose EU-A594; Group 4. low dose EU-A1024; Group 5. high dose EU-A1024. Mice were dosed via SC on days 1 (0, 7 hrs.), 3, 6, 9, 12, 15, 18, 21, 24. Body weights and cage side observations were recorded daily. Food and water intake was recorded weekly. Mice underwent NMR measurements for determining whole body fat and lean composition on days 1 (pre-dose) and 26. On day 26, mice were fasted overnight for an oral glucose tolerance test. Next day, the first blood sample was collected via tail nick (t=0). Mice were then administered a bolus of 1.0 g/kg glucose. Blood samples were obtained via tail nick at 0, 15, 30, 60, 90 and 120 min after glucose and plasma glucose was immediately determined using a glucometer.
Sacrifice and tissue collection: Mice were sacrificed on day 28. Terminal blood was processed to serum/plasma and aliquots were sent for analysis of glucose, insulin and lipid profile. Body composition was determined by NMR.

GLP-1 R = molecular target: T1, GLP-1 R (Homo sapiens, UniProt P43220); assay: DiscoveRx LeadHunter cellular assay, cAMP stimulation, GLP-1 receptor; format: cell-based; settings: human receptor cloned into CHO cells
T1 construct: host or cells: CHO cells

glucagon R = molecular target: T2, glucagon R (Homo sapiens, UniProt P47871); assay: DiscoveRx LeadHunter cellular assay, cAMP stimulation, glucagon receptor; format: cell-based; settings: human receptor cloned into CHO cells
T2 construct: host or cells: CHO cells

[2] = Plasma protease stability; format: in vitro ADME; settings: incubation at 30 degC, t=0-8 hrs, LC-MS (FIG. 8)
Procedure: Standard and QC Sample Preparation: i. […] Make standard working solutions in 50% CH3CN with the stock solution. […] Spiked 10 μL of the working solutions into 90 μL blank plasma and vortex them, iv. […] Transfer the supernatant into an HPLC injection plate for loading on the HPLC column, vi.

T2 sequence (P47871 26-477): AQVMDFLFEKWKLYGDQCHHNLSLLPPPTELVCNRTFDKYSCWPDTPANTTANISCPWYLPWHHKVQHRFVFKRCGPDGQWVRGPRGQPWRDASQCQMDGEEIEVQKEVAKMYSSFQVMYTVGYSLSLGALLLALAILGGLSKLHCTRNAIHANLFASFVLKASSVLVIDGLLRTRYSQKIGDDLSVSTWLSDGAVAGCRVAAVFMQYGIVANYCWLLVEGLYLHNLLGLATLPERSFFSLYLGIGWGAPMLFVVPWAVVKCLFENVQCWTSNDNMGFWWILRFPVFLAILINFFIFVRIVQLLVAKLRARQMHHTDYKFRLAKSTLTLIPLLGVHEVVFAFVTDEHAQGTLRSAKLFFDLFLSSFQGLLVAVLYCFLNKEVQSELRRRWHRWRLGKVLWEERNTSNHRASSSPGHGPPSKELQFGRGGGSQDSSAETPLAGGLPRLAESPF
T1 sequence (P43220 24-463): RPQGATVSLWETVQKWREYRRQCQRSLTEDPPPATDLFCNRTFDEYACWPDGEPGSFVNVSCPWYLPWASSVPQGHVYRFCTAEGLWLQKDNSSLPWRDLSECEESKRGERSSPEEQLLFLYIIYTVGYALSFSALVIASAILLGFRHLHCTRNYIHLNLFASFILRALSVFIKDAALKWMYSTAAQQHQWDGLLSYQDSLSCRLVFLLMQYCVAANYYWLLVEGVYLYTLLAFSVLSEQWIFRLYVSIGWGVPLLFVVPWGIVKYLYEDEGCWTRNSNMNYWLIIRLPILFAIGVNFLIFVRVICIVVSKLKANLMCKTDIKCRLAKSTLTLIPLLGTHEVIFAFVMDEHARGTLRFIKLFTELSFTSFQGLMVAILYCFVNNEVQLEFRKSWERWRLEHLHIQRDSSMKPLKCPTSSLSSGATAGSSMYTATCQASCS

Compound: CCCCCCCCCCCCO[C@@H]1O[C@H](CO)[C@@H](O[C@H]2O[C@H](CO)[C@@H](O)[C@H](O)[C@H]2O)[C@H](O)[C@H]1O [Dodecyl-β-D-maltoside]
CMC [1]: 0.17 mM

Compound: CCCCCCCCCCCCCCO[C@@H]1O[C@H](CO[C@H]2O[C@H](C(=O)NCCCC[C@H](NC(=O)[C@@H](NC(=O)[C@H](Cc3ccccc3)NC(=O)[C@H](CCC(=O)O)NC(=O)[C@@H]3CCCCNC(=O)CC[C@H](NC(=O)[C@H](CC(=O)O)NC(=O)[C@H](CC(C)C)NC(=O)[C@H](Cc4ccc(O)cc4)NC(=O)[C@H](CCCCN)NC(=O)[C@H](CO)NC(=O)[C@H](Cc4ccc(O)cc4)NC(=O)[C@H](CC(=O)O)NC(=O)[C@H](CO)NC(=O)[C@@H](NC(=O)[C@H](Cc4ccccc4)NC(=O)[C@@H](NC(=O)CNC(=O)[C@H](CCC(N)=O)NC(=O)C(C)(C)NC(=O)[C@@H](N)Cc4c[nH]cn4)[C@@H](C)O)[C@@H](C)O)C(=O)N[C@@H](CCC(N)=O)C(=O)N[C@@H](C)C(=O)N[C@@H](C)C(=O)N3)[C@@H](C)CC)C(=O)N[C@@H](Cc3c[nH]c4ccccc34)C(=O)N[C@@H](CC(C)C)C(=O)N[C@@H](CC(C)C)C(=O)N[C@@H](CCC(N)=O)C(=O)N[C@H](C(N)=O)[C@@H](C)O)[C@H](O)[C@H](O)[C@H]2O)[C@@H](O)[C@H](O)[C@H]1O [EU-A1024, His1-Aib2-Gln3-Gly4-Thr5-Phe6-Thr7-Ser8-Asp9-Tyr10-Ser11-Lys12-Tyr13-Leu14-Asp15-Glu*16-Gln17 Ala18-Ala19-Lys*20-Glu21-Phe22-Ile23-Lys (N-omega (1-tetradecyl beta-D-melibiouronyl)) 24-Trp25-Leu26-Leu27-Gln28-Thr29-NH2]
fat mass (DIO mice; NMR (FIG. 11)): decreased fat mass | lean mass (DIO mice; NMR (FIG. 11)): minimal effects on lean mass | basal insulin secretion (DIO mice; SC dosing days 1-24): decreased basal insulin secretion | glucose-dependent insulin secretion (DIO mice; SC dosing days 1-24): potentiated glucose-dependent insulin secretion | weight gain (DIO mice; SC dosing days 1-24 (FIG. 10)): decreased weight gain | glucose excursion in the OGTT (DIO mice; SC dosing days 1-24, OGTT 1.0 g/kg glucose): decreased glucose excursion

EC50 (GLP-1 R): 0.081 nM | EC50 (glucagon R): 0.253 nM
Compound: CCCCCCCCCCCCCCO[C@H]1O[C@H](CO[C@H]2O[C@H](C(=O)NCCCC[C@@H]3NC(=O)[C@@H](NC(=O)[C@H](CC(=O)O)NC(=O)[C@H](CC(C)C)NC(=O)[C@H](Cc4ccc(O)cc4)NC(=O)[C@H](CCCCN)NC(=O)[C@H](CO)NC(=O)[C@H](Cc4ccc(O)cc4)NC(=O)[C@H](CC(=O)O)NC(=O)[C@H](CO)NC(=O)[C@@H](NC(=O)[C@H](Cc4ccccc4)NC(=O)[C@@H](NC(=O)CNC(=O)[C@H](CCC(N)=O)NC(=O)C(C)(C)NC(=O)[C@@H](N)Cc4c[nH]cn4)[C@@H](C)O)[C@@H](C)O)CCC(=O)NCCCC[C@@H](C(=O)N[C@@H](CCC(=O)O)C(=O)N[C@@H](Cc4ccccc4)C(=O)N[C@H](C(=O)N[C@@H](CCC(N)=O)C(=O)N[C@@H](Cc4c[nH]c5ccccc45)C(=O)N[C@@H](CC(C)C)C(=O)N[C@@H](CC(C)C)C(=O)N[C@@H](CCC(N)=O)C(=O)N[C@H](C(N)=O)[C@@H](C)O)[C@@H](C)CC)NC(=O)[C@H](C)NC(=O)[C@H](C)NC3=O)[C@H](O)[C@H](O)[C@H]2O)[C@@H](O)[C@H](O)[C@H]1O [EU-A1587, His1-Aib2-Gln3-Gly4-Thr5-Phe6-Thr7-Ser8-Asp9-Tyr10-Ser11-Lys12-Tyr13-Leu14-Asp15-Glu*16-Lys (N-omega (1-tetradecyl alpha-D-melibiouronyl)) 17 Ala18-Ala19-Lys*20-Glu21-Phe22-Ile23-Gln24-Trp25-Leu26-Leu27-Gln28-Thr29-NH2]

EC50 (GLP-1 R): 0.236 nM | EC50 (glucagon R): 0.655 nM
Compound: CCCCCCCCCCCCCCCCCCO[C@H]1O[C@H](CO[C@H]2O[C@H](C(=O)NCCCC[C@@H]3NC(=O)[C@@H](NC(=O)[C@H](CC(=O)O)NC(=O)[C@H](CC(C)C)NC(=O)[C@H](Cc4ccc(O)cc4)NC(=O)[C@H](CCCCN)NC(=O)[C@H](CO)NC(=O)[C@H](Cc4ccc(O)cc4)NC(=O)[C@H](CC(=O)O)NC(=O)[C@H](CO)NC(=O)[C@@H](NC(=O)[C@H](Cc4ccccc4)NC(=O)[C@@H](NC(=O)CNC(=O)[C@H](CCC(N)=O)NC(=O)C(C)(C)NC(=O)[C@@H](N)Cc4c[nH]cn4)[C@@H](C)O)[C@@H](C)O)CCC(=O)NCCCC[C@@H](C(=O)N[C@@H](CCC(=O)O)C(=O)N[C@@H](Cc4ccccc4)C(=O)N[C@H](C(=O)N[C@@H](CCC(N)=O)C(=O)N[C@@H](Cc4c[nH]c5ccccc45)C(=O)N[C@@H](CC(C)C)C(=O)N[C@@H](CC(C)C)C(=O)N[C@@H](CCC(N)=O)C(=O)N[C@H](C(N)=O)[C@@H](C)O)[C@@H](C)CC)NC(=O)[C@H](C)NC(=O)[C@H](C)NC3=O)[C@H](O)[C@H](O)[C@H]2O)[C@@H](O)[C@H](O)[C@H]1O [EU-A1589, His1-Aib2-Gln3-Gly4-Thr5-Phe6-Thr7-Ser8-Asp9-Tyr10-Ser11-Lys12-Tyr13-Leu14-Asp15-Glu*16Lys (N-omega (1-octadecyl alpha-D-melibiouronyl)) 17 Ala18-Ala19-Lys*20-Glu21-Phe22-Ile23-Gln24-Trp25-Leu26-Leu27-Gln28-Thr29-NH2]

Compound: CCCCCCCCCCCCO[C@@H]1O[C@H](CO[C@H]2O[C@H](C(=O)NCCCC[C@H](NC(=O)[C@@H](NC(=O)[C@H](Cc3ccccc3)NC(=O)[C@H](CCC(=O)O)NC(=O)[C@@H]3CCCCNC(=O)CC[C@H](NC(=O)[C@H](CC(=O)O)NC(=O)[C@H](CC(C)C)NC(=O)[C@H](Cc4ccc(O)cc4)NC(=O)[C@H](CCCCN)NC(=O)[C@H](CO)NC(=O)[C@H](Cc4ccc(O)cc4)NC(=O)[C@H](CC(=O)O)NC(=O)[C@H](CO)NC(=O)[C@@H](NC(=O)[C@H](Cc4ccccc4)NC(=O)[C@@H](NC(=O)CNC(=O)[C@H](CCC(N)=O)NC(=O)C(C)(C)NC(=O)[C@@H](N)Cc4c[nH]cn4)[C@@H](C)O)[C@@H](C)O)C(=O)N[C@@H](CCC(N)=O)C(=O)N[C@@H](C)C(=O)N[C@@H](C)C(=O)N3)[C@@H](C)CC)C(=O)N[C@@H](Cc3c[nH]c4ccccc34)C(=O)N[C@@H](CC(C)C)C(=O)N[C@@H](CC(C)C)C(=O)N[C@@H](CCC(N)=O)C(=O)N[C@H](C(=O)NCCOCCOCCOCCOCCC(=O)O)[C@@H](C)O)[C@H](O)[C@H](O)[C@H]2O)[C@@H](O)[C@H](O)[C@H]1O [EU-A1639]
EC50 (GLP-1 R): 0.385 nM | EC50 (glucagon R; read-out: EC50 cAMP glucagon R): 2.29 nM

Compound: CCCCCCCCCCCCO[C@@H]1O[C@H](CO[C@H]2O[C@H](C(=O)NCCCC[C@H](NC(=O)[C@@H](NC(=O)[C@H](Cc3ccccc3)NC(=O)[C@H](CCC(=O)O)NC(=O)[C@@H]3CCCCNC(=O)CC[C@H](NC(=O)[C@H](CC(=O)O)NC(=O)[C@H](CC(C)C)NC(=O)[C@H](Cc4ccc(O)cc4)NC(=O)[C@H](CCCCN)NC(=O)[C@H](CO)NC(=O)[C@H](Cc4ccc(O)cc4)NC(=O)[C@H](CC(=O)O)NC(=O)[C@H](CO)NC(=O)[C@@H](NC(=O)[C@H](Cc4ccccc4)NC(=O)[C@@H](NC(=O)CNC(=O)[C@H](CCC(N)=O)NC(=O)C(C)(C)NC(=O)[C@@H](N)Cc4c[nH]cn4)[C@@H](C)O)[C@@H](C)O)C(=O)N[C@@H](CCC(N)=O)C(=O)N[C@@H](C)C(=O)N[C@@H](C)C(=O)N3)[C@@H](C)CC)C(=O)N[C@@H](Cc3c[nH]c4ccccc34)C(=O)N[C@@H](CC(C)C)C(=O)N[C@@H](CC(C)C)C(=O)N[C@@H](CCC(N)=O)C(=O)N[C@H](C(=O)NCCOCCOCCOCCOCCOCCOCCOCCOCCC(=O)O)[C@@H](C)O)[C@H](O)[C@H](O)[C@H]2O)[C@@H](O)[C@H](O)[C@H]1O [EU-A1651]
EC50 (GLP-1 R): 0.033 nM | EC50 (glucagon R; read-out: EC50 cAMP glucagon R): 0.149 nM

Compound: CC[C@H](C)[C@H](NC(=O)[C@H](Cc1ccccc1)NC(=O)[C@H](CCC(=O)O)NC(=O)[C@H](CCCCN)NC(=O)[C@H](C)NC(=O)[C@H](C)NC(=O)[C@H](CCC(N)=O)NC(=O)CNC(=O)[C@H](CCC(=O)O)NC(=O)[C@H](CC(C)C)NC(=O)[C@H](Cc1ccc(O)cc1)NC(=O)[C@H](CO)NC(=O)[C@H](CO)NC(=O)[C@@H](NC(=O)[C@H](CC(=O)O)NC(=O)[C@H](CO)NC(=O)[C@@H](NC(=O)[C@H](Cc1ccccc1)NC(=O)[C@@H](NC(=O)CNC(=O)[C@H](CCC(=O)O)NC(=O)[C@H](C)NC(=O)[C@@H](N)Cc1c[nH]cn1)[C@@H](C)O)[C@@H](C)O)C(C)C)C(=O)N[C@@H](C)C(=O)N[C@@H](Cc1c[nH]c2ccccc12)C(=O)N[C@@H](CC(C)C)C(=O)N[C@H](C(=O)N[C@@H](CCCCN)C(=O)NCC(=O)N[C@@H](CCCNC(=N)N)C(N)=O)C(C)C [GIP-1 (7-36), reference compound]
amount of intact compound in the human plasma versus time [2]: rapid decrease

Compound: CCCCCCCCO[C@@H]1O[C@H](CO)[C@@H](O[C@H]2O[C@H](CO)[C@@H](O)[C@H](O)[C@H]2O)[C@H](O)[C@H]1O [Octyl maltoside]
CMC [1]: 19.5 mM

Compound: Sucrose dodecanoate
CMC [1]: 0.3 mM
